Tests used:
[1] = target: Glucocorticoid receptor (Homo sapiens) (UniProt P04150); test: Inhibition of human glucocortlicoid receptor at 3 uM by radioligand binding assay
[2] = target: Delta-type opioid receptor (Homo sapiens) (UniProt P41143); test: Inhibition of human delta opioid receptor at 3 uM by radioligand binding assay
[3] = target: T1, Muscarinic acetylcholine receptor M1 (Homo sapiens) (UniProt P11229); test: Intrinsic activity at muscarinic M1 receptor (unknown origin) by calcium mobilization assay; format: functional
T1 sequence (whole entry): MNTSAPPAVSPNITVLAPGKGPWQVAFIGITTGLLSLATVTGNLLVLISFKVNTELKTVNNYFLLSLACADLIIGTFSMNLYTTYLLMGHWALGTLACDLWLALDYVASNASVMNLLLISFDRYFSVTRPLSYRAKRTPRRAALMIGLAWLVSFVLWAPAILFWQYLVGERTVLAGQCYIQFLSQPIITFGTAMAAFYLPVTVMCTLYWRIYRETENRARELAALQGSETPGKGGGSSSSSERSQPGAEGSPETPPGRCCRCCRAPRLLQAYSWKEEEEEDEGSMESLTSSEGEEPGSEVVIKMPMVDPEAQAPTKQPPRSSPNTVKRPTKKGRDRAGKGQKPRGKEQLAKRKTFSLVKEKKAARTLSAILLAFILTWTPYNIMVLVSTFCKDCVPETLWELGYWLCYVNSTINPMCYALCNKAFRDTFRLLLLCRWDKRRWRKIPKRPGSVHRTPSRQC

[4] = target: T2, Muscarinic acetylcholine receptor M5 (Homo sapiens) (UniProt P08912); test: Agonist activity at muscarinic M5 receptor (unknown origin) at 10 uM by calcium mobilization assay; format: functional
T2 sequence (whole entry): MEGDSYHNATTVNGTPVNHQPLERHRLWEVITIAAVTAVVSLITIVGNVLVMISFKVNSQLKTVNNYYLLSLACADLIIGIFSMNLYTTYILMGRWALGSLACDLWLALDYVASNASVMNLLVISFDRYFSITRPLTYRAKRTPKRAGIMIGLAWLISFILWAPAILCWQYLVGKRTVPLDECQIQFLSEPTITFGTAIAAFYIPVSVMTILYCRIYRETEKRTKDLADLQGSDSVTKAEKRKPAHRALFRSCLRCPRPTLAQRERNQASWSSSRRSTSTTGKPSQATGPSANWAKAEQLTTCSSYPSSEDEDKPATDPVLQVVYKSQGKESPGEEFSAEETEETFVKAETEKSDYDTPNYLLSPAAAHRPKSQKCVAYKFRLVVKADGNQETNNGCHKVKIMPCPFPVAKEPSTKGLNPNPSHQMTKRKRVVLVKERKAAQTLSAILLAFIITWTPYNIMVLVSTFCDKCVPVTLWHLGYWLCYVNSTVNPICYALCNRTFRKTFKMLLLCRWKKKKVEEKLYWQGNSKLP

[5] = species: Rattus norvegicus; test: Inhibition of rat purinergic P2Y receptor at 3 uM by radioligand binding assay
[6] = target: Mu-type opioid receptor (Homo sapiens) (UniProt P35372); test: Inhibition of human mu opioid receptor at 3 uM by radioligand binding assay
Chain of Mu-type opioid receptor (Homo sapiens) (P35372 whole entry): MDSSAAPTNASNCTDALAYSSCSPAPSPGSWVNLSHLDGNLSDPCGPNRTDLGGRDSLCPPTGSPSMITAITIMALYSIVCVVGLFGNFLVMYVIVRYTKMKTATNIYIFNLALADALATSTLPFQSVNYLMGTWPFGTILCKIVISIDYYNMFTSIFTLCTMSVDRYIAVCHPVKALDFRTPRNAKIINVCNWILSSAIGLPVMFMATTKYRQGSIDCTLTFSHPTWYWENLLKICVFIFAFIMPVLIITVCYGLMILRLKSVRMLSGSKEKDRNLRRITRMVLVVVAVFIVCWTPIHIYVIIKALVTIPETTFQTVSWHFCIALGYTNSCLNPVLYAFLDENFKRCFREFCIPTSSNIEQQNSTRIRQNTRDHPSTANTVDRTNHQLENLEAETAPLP

[7] = target: Endothelin receptor type B (Homo sapiens) (UniProt P24530); test: Inhibition of human ETB receptor at 3 uM by radioligand binding assay
Chain of Endothelin receptor type B (Homo sapiens) (P24530 whole entry): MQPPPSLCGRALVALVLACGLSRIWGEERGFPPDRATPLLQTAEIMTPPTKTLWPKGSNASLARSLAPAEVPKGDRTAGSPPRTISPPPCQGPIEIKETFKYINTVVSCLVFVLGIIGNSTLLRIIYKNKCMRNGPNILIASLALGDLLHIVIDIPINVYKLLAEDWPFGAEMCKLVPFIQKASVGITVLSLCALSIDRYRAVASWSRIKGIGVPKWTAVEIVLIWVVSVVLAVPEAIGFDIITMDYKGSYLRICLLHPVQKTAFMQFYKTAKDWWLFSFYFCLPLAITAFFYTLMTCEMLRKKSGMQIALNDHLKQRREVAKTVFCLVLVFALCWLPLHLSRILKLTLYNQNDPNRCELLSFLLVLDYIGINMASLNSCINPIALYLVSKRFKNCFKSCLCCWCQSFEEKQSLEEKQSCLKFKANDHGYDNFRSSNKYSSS

[8] = Cmax in rat at 0.25 mg/kg, iv and 2.5 mg/kg, po; format: ADME, organism-based; settings: in vivo
[9] = target: Alpha-1A adrenergic receptor (Rattus norvegicus) (UniProt P43140); test: Inhibition of rat alpha1A adrenergic receptor at 3 uM by radioligand binding assay
Chain of Alpha-1A adrenergic receptor (Rattus norvegicus) (P43140 whole entry): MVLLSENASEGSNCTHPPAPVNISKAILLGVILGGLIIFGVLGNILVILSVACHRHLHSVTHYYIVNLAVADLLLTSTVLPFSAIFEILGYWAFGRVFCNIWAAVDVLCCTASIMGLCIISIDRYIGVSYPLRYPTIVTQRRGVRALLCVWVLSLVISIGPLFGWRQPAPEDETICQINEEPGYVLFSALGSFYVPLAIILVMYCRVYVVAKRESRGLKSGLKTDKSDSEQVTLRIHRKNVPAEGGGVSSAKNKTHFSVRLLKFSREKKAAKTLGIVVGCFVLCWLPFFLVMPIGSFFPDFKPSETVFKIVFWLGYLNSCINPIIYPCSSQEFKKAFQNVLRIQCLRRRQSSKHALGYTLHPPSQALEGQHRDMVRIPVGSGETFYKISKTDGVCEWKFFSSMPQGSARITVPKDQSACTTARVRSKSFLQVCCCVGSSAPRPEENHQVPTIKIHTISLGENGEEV

[10] = target: T1, Muscarinic acetylcholine receptor M1 (Homo sapiens); test: Agonist activity at muscarinic M1 receptor (unknown origin) at 0.3 uM by calcium mobilization assay; format: functional
[11] = target: L-type calcium channel, dihydropyridine binding site (Rattus norvegicus, UniProt P22002+P27732+Q02485); test: Inhibition of rat L-type calcium channel dihydropyridine binding site at 3 uM by radioligand binding assay; format: protein assay
[12] = target: 5-hydroxytryptamine receptor 3A (Homo sapiens) (UniProt P46098); test: Inhibition of human 5-HT3 receptor at 3 uM by radioligand binding assay
Chain of 5-hydroxytryptamine receptor 3A (Homo sapiens) (P46098 whole entry): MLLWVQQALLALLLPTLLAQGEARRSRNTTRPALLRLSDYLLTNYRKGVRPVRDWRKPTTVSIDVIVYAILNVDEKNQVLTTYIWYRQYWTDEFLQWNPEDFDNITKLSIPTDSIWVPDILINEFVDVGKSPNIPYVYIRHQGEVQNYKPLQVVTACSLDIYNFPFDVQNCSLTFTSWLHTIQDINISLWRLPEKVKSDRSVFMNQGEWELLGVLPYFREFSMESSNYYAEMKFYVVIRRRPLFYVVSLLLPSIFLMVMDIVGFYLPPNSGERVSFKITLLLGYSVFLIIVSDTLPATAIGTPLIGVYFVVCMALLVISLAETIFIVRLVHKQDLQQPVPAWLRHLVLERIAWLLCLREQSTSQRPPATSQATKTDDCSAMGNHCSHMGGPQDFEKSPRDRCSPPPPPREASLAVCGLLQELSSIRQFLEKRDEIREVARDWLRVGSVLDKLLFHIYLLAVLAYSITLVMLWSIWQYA

[13] = target: Glutamate NMDA receptor (Rattus norvegicus) (UniProt P35439+Q00959+Q00960+Q00961+Q62645+Q8VHN2+Q9R1M7); test: Inhibition of rat NMDA receptor phencyclidine binding site at 3 uM by radioligand binding assay; format: protein-complex assay
[14] = target: Histamine H1 receptor (Homo sapiens) (UniProt P35367); test: Inhibition of human histamine H1 receptor at 3 uM by radioligand binding assay
Chain of Histamine H1 receptor (Homo sapiens) (P35367 whole entry): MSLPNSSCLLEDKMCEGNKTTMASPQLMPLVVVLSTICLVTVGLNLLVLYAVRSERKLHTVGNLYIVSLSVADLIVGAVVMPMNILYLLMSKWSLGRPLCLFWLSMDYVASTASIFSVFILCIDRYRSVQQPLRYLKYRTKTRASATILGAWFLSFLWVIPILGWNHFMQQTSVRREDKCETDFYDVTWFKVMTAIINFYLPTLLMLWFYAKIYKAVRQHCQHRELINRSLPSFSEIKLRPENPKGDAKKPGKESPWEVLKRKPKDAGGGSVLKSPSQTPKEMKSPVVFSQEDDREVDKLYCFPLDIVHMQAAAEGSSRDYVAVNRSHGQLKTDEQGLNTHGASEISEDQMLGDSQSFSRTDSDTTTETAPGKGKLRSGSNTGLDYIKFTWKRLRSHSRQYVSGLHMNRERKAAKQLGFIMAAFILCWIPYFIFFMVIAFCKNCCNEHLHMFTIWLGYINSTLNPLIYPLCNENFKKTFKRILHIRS

[15] = target: D(4) dopamine receptor (Homo sapiens) (UniProt P21917); test: Inhibition of human dopamine D4.2 receptor at 3 uM by radioligand binding assay
Chain of D(4) dopamine receptor (Homo sapiens) (P21917 whole entry): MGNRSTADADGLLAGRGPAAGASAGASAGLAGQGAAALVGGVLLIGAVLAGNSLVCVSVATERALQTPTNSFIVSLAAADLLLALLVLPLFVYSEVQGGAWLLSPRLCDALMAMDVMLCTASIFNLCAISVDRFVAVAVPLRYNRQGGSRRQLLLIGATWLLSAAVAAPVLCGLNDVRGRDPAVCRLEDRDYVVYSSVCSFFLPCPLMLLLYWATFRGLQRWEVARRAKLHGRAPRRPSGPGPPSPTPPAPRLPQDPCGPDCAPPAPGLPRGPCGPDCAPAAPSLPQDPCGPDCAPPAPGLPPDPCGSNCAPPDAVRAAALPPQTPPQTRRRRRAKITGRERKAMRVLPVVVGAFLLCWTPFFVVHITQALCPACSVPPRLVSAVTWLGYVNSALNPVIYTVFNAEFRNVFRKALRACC

[16] = test system: Cricetinae; settings: 3 uM
Description: Inhibition of hamster potassium channel at 3 uM by radioligand binding assay

[17] = species: Rattus norvegicus; test: Inhibition of rat GABAA central type receptor muscimol binding site at 3 uM by radioligand binding assay
[18] = Oral bioavailability in dog at 1 mg/kg; format: ADME, organism-based, Canis lupus familiaris; settings: in vivo
[19] = species: Rattus norvegicus; test: Inhibition of rat N-type calcium channel at 3 uM by radioligand binding assay
[20] = Lipophilicity, log P of the compound; format: physicochemical; settings: octanol/water
[21] = target: T2, Muscarinic acetylcholine receptor M5 (Homo sapiens); test: Intrinsic activity at muscarinic M5 receptor (unknown origin) at 10 uM by calcium mobilization assay; format: functional
[22] = species: Homo sapiens; test: Inhibition of human nicotinic acetylcholine receptor at 3 uM by radioligand binding assay
[23] = target: cAMP and cAMP-inhibited cGMP 3',5'-cyclic phosphodiesterase 10A (Homo sapiens) (UniProt Q9Y233); test: Inhibition of human PDE10A1 at 3 uM by radioligand binding assay
Chain of cAMP and cAMP-inhibited cGMP 3',5'-cyclic phosphodiesterase 10A (Homo sapiens) (Q9Y233 whole entry): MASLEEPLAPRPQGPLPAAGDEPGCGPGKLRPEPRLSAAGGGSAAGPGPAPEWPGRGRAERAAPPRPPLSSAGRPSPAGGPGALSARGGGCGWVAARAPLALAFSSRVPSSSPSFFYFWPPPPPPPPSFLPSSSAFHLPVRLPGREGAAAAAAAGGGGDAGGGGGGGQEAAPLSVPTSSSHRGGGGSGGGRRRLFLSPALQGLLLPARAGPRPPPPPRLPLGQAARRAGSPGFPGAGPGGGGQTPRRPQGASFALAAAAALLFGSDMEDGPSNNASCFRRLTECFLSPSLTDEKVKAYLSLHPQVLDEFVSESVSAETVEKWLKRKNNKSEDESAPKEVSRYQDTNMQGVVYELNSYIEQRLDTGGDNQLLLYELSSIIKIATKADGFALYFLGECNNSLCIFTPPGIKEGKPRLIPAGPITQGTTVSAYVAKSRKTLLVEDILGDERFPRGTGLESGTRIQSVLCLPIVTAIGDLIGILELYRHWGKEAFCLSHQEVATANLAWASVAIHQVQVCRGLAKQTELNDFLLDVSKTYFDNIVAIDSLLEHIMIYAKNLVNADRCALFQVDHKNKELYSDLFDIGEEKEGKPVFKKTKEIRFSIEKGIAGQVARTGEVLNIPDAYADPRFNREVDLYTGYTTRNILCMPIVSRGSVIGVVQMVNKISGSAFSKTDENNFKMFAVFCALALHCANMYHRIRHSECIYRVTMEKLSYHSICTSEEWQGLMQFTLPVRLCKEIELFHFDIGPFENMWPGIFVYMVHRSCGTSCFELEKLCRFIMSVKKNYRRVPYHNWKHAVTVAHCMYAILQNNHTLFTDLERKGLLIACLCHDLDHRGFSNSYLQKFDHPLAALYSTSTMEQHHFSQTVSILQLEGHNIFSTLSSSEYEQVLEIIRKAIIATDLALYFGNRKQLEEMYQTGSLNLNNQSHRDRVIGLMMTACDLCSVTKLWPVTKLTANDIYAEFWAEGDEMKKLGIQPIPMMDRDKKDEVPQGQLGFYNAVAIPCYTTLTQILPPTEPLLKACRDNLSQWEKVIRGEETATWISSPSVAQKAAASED

[24] = Half life in rat at 0.25 mg/kg, iv and 2.5 mg/kg, po; format: ADME, organism-based; settings: in vivo
[25] = target: Muscarinic acetylcholine receptor M4 (Homo sapiens, UniProt P08173); test: Agonist activity at muscarinic M4 receptor (unknown origin) by calcium mobilization assay; format: functional
Chain of Muscarinic acetylcholine receptor M4 (P08173 whole entry): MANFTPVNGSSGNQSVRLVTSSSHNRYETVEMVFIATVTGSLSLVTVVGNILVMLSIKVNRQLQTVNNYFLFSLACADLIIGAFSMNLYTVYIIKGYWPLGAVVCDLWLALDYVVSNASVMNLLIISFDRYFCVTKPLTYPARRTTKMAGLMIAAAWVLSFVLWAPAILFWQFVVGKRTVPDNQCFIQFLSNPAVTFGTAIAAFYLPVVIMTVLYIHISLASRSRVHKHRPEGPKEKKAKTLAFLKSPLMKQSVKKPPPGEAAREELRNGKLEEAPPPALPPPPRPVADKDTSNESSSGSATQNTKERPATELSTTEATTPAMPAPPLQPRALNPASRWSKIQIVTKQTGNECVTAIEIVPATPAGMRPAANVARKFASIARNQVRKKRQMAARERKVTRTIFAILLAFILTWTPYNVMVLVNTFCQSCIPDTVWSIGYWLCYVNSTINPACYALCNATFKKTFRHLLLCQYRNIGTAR

[26] = target: Histamine H2 receptor (Homo sapiens) (UniProt P25021); test: Inhibition of human histamine H2 receptor at 3 uM by radioligand binding assay
Chain of Histamine H2 receptor (Homo sapiens) (P25021 whole entry): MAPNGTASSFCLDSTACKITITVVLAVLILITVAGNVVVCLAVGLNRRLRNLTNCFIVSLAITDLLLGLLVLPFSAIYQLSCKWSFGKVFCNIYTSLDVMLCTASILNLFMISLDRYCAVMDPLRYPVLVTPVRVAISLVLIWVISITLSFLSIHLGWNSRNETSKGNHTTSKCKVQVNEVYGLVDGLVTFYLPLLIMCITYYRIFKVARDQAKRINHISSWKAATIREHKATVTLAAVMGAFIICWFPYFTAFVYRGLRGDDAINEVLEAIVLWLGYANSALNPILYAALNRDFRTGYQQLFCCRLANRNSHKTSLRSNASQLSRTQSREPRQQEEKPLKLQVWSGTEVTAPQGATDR

Chain of Delta-type opioid receptor (Homo sapiens) (P41143 whole entry): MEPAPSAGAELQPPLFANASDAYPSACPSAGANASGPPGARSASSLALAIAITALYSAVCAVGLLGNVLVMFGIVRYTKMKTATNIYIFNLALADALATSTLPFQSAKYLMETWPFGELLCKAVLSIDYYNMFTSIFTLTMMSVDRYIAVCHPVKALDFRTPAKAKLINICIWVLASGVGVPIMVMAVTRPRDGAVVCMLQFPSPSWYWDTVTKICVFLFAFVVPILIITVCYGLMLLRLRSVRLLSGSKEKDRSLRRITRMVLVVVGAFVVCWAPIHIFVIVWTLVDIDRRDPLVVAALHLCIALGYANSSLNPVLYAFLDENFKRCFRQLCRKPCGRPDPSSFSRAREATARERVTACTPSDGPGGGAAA

CCOC(=O)N1CCC(CN2CCC3(CC2)CN(C(=O)N(C)C)c2ncccc23)CC1.O=C(O)/C=C/C(=O)O
inhibition [1]: 15%
inhibition [2]: -1%
Intrinsic activity [3]: 76%
Activity [4]: 11%
inhibition [5]: 9%
inhibition [6]: 3%
inhibition [7]: -1%
Cmax [8]: 207 ng/mL
inhibition [9]: 37%
Activity [10]: 76%
inhibition at 3 µM [11]: 11%
inhibition [12]: -10%
inhibition [13]: 0%
inhibition [14]: -2%
inhibition [15]: 4%
inhibition [16]: 6%
inhibition [17]: 2%
bioavailability [18]: 49.3%
inhibition [19]: 4%
logP [20]: 1.3
Intrinsic activity [21]: 11%
inhibition [22]: 9%
inhibition [23]: -2%
half-life [24]: 54 min
EC50 [25]: 47 nM
inhibition [26]: 4%

Reference: ChEMBL document CHEMBL3351422, “Discovery of N-substituted 7-azaindoline derivatives as potent, orally available M1 and M4 muscarinic acetylcholine receptors selective agonists” (Bioorg Med Chem Lett, 2014)
